Results from patent publication US10906938B2, “Cell epitopes and combination of cell epitopes for use in the immunotherapy of myeloma and other cancers” (Immatics Biotechnologies GmbH, priority 2015, dated 2021).

Tested on: U266 cells
Assay: HLA class I ligand presentation upon carfilzomib treatment on U266 cells (LC-MS/MS)
Type: cell-based, human
Design: key to modulation upon carfilzomib-treatment 24 #1 / modulation upon carfilzomib-treatment 24 #2 / modulation upon carfilzomib-treatment 24 #3 / modulation upon carfilzomib-treatment 48 #1 / modulation upon carfilzomib-treatment 48 #2 / modulation upon carfilzomib-treatment 48 #3: −1: significantly down-modulated; 0: not signifcant/not detected; 1: significantly up-modulated
Settings: U266 cells, vs mock-treated controls; for modulation upon carfilzomib-treatment 24 #1 / modulation upon carfilzomib-treatment 24 #2 / modulation upon carfilzomib-treatment 24 #3: 24 h after carfilzomib treatment (100 nM, 1 h); for modulation upon carfilzomib-treatment 24 #1 / modulation upon carfilzomib-treatment 48 #1: biological replicate #1; for modulation upon carfilzomib-treatment 24 #2 / modulation upon carfilzomib-treatment 48 #2: biological replicate #2; for modulation upon carfilzomib-treatment 24 #3 / modulation upon carfilzomib-treatment 48 #3: biological replicate #3; for modulation upon carfilzomib-treatment 48 #1 / modulation upon carfilzomib-treatment 48 #2 / modulation upon carfilzomib-treatment 48 #3: 48 h after carfilzomib treatment (100 nM, 1 h)
Procedure: HLA class I and II molecules were isolated using standard immunoaffinity purification as described using the pan-HLA class I specific mAb W6/32, the pan-HLA class II specific mAb T039 and the HLA-DR specific mAB L243 (produced in house).
HLA ligand extracts were analyzed in 5 technical replicates as described previously. In brief, peptide samples were separated by nanoflow HPLC (RSLCnano, ThermoFisher) using a 50 μm×25 cm PepMap RSLC column (Thermo Fisher) and a gradient ranging from 2.4 to 32.0% acetonitrile over the course of 90 min. Eluting peptides were analyzed in an online coupled LTQ Orbitrap XL mass spectrometer (Thermo Fisher) using a top 5 CID (collision induced dissociation) fragmentation method.
Data processing was performed as described previously. In brief, the Mascot search engine (Mascot 2.2.04; Matrix Science, London, UK) was implemented to search the human proteome as comprised in the Swiss-Prot database (20,279 reviewed protein sequences, September 2013) without enzymatic restriction. Potential mutated HLA ligands were searched implementing a database containing the human proteome concatenated with proteins containing single amino acid variants (SAVs) listed in the COSMIC database (http://cancer.sanger.ac.uk/cosmic/). Only recurrent SAVs described in 2 or more samples of hematological origin were included. Oxidized methionine was allowed as a dynamic modification. The false discovery rate was estimated using the Percolator algorithm and set to 5%. Peptide lengths were limited to 8-12 amino acids for HLA class I and 12-25 amino acids for HLA class II. Protein inference was disabled, allowing for multiple protein annotations of peptides. HLA annotation was performed using SYFPEITHI [46] or an extended in-house database. Experimental validation of peptide identifications and HLA annotations was performed by mass spectrometric and functional characterization of synthetic peptides for a subset of peptides.
The inventors quantitatively assessed HLA class I ligand presentation during proteasome inhibitor therapy. Observed was a considerable plasticity of the HLA class I ligandome after treatment with carfilzomib with 17.9±1.1% of MM.1S ligands and 11.2±0.7% of U266 ligands (mean of three biological replicates ±s.d.) showing significant modulation (fold-change ≥4, Po0.01 after Benjamini-Hochberg correction) at t24 h compared with mock-treated controls. Briefly, Cultured MCLs (MM.1S and U266) and primary myeloma samples were incubated with carfilzomib (100 nM, Kyprolis®, available, e.g., from Onyx Pharmaceuticals, Inc.) as an example for a proteasome inhibitor for a 1-h period, followed by three washes in PBS (Gibco) and recultured for additional 24 or 48 h. Controls were incubated with vehicle control (glucose 5%) for 1 h, followed by identical washing and incubation for 24 or 48 h. Experiments were conducted in three biological replicates where indicated.

## KAMEAASSL
  modulation upon carfilzomib-treatment 24 #1: −1
  modulation upon carfilzomib-treatment 24 #2: −1
  modulation upon carfilzomib-treatment 24 #3: −1
  modulation upon carfilzomib-treatment 48 #1: −1
  modulation upon carfilzomib-treatment 48 #2: −1
  modulation upon carfilzomib-treatment 48 #3: −1

## RVNKVIIGTK
  modulation upon carfilzomib-treatment 24 #1: 0
  modulation upon carfilzomib-treatment 24 #2: 0
  modulation upon carfilzomib-treatment 24 #3: 0
  modulation upon carfilzomib-treatment 48 #1: 0
  modulation upon carfilzomib-treatment 48 #2: 0
  modulation upon carfilzomib-treatment 48 #3: 0

## IESHPDNAL
  modulation upon carfilzomib-treatment 24 #1: 0
  modulation upon carfilzomib-treatment 24 #2: 0
  modulation upon carfilzomib-treatment 24 #3: 0
  modulation upon carfilzomib-treatment 48 #1: 0
  modulation upon carfilzomib-treatment 48 #2: 0
  modulation upon carfilzomib-treatment 48 #3: 0

## KLSSLIILM
  modulation upon carfilzomib-treatment 24 #1: 0
  modulation upon carfilzomib-treatment 24 #2: 0
  modulation upon carfilzomib-treatment 24 #3: 0
  modulation upon carfilzomib-treatment 48 #1: 0
  modulation upon carfilzomib-treatment 48 #2: 0
  modulation upon carfilzomib-treatment 48 #3: 0

## YLYITKVLK
  modulation upon carfilzomib-treatment 24 #1: 0
  modulation upon carfilzomib-treatment 24 #2: 0
  modulation upon carfilzomib-treatment 24 #3: 0
  modulation upon carfilzomib-treatment 48 #1: 0
  modulation upon carfilzomib-treatment 48 #2: 0
  modulation upon carfilzomib-treatment 48 #3: 0

## RPRPPVLSV
  modulation upon carfilzomib-treatment 24 #1: 0
  modulation upon carfilzomib-treatment 24 #2: 0
  modulation upon carfilzomib-treatment 24 #3: 0
  modulation upon carfilzomib-treatment 48 #1: 0
  modulation upon carfilzomib-treatment 48 #2: 0
  modulation upon carfilzomib-treatment 48 #3: 0

## FLWDEGFHQL
  modulation upon carfilzomib-treatment 24 #1: 0
  modulation upon carfilzomib-treatment 24 #2: 0
  modulation upon carfilzomib-treatment 24 #3: 0
  modulation upon carfilzomib-treatment 48 #1: 0
  modulation upon carfilzomib-treatment 48 #2: 0
  modulation upon carfilzomib-treatment 48 #3: 0

## KPKDPLKISL
  modulation upon carfilzomib-treatment 24 #1: −1
  modulation upon carfilzomib-treatment 24 #2: −1
  modulation upon carfilzomib-treatment 24 #3: −1
  modulation upon carfilzomib-treatment 48 #1: 0
  modulation upon carfilzomib-treatment 48 #2: −1
  modulation upon carfilzomib-treatment 48 #3: −1

## RPGPPTRPL
  modulation upon carfilzomib-treatment 24 #1: 0
  modulation upon carfilzomib-treatment 24 #2: 0
  modulation upon carfilzomib-treatment 24 #3: 0
  modulation upon carfilzomib-treatment 48 #1: 0
  modulation upon carfilzomib-treatment 48 #2: 0
  modulation upon carfilzomib-treatment 48 #3: 0

## RQFWTRTKK
  modulation upon carfilzomib-treatment 24 #1: 0
  modulation upon carfilzomib-treatment 24 #2: 0
  modulation upon carfilzomib-treatment 24 #3: 0
  modulation upon carfilzomib-treatment 48 #1: 0
  modulation upon carfilzomib-treatment 48 #2: 0
  modulation upon carfilzomib-treatment 48 #3: 0

## PELGPLPAL
  modulation upon carfilzomib-treatment 24 #1: 0
  modulation upon carfilzomib-treatment 24 #2: 0
  modulation upon carfilzomib-treatment 24 #3: 0
  modulation upon carfilzomib-treatment 48 #1: 0
  modulation upon carfilzomib-treatment 48 #2: 0
  modulation upon carfilzomib-treatment 48 #3: 0

## SPRQALTDF
  modulation upon carfilzomib-treatment 24 #1: 0
  modulation upon carfilzomib-treatment 24 #2: 0
  modulation upon carfilzomib-treatment 24 #3: 0
  modulation upon carfilzomib-treatment 48 #1: 0
  modulation upon carfilzomib-treatment 48 #2: 0
  modulation upon carfilzomib-treatment 48 #3: 0

## KAVNPGRSL
  modulation upon carfilzomib-treatment 24 #1: 0
  modulation upon carfilzomib-treatment 24 #2: 0
  modulation upon carfilzomib-treatment 24 #3: 0
  modulation upon carfilzomib-treatment 48 #1: 0
  modulation upon carfilzomib-treatment 48 #2: 0
  modulation upon carfilzomib-treatment 48 #3: 0

## SVYSPVKKK
  modulation upon carfilzomib-treatment 24 #1: 0
  modulation upon carfilzomib-treatment 24 #2: 0
  modulation upon carfilzomib-treatment 24 #3: −1
  modulation upon carfilzomib-treatment 48 #1: 0
  modulation upon carfilzomib-treatment 48 #2: 0
  modulation upon carfilzomib-treatment 48 #3: 0

## SPYLRPLTL
  modulation upon carfilzomib-treatment 24 #1: 0
  modulation upon carfilzomib-treatment 24 #2: 0
  modulation upon carfilzomib-treatment 24 #3: 0
  modulation upon carfilzomib-treatment 48 #1: 0
  modulation upon carfilzomib-treatment 48 #2: 0
  modulation upon carfilzomib-treatment 48 #3: 0

## GETAFAFHL
  modulation upon carfilzomib-treatment 24 #1: 0
  modulation upon carfilzomib-treatment 24 #2: 0
  modulation upon carfilzomib-treatment 24 #3: 0
  modulation upon carfilzomib-treatment 48 #1: 0
  modulation upon carfilzomib-treatment 48 #2: 0
  modulation upon carfilzomib-treatment 48 #3: 0

## SPRLSLLYL
  modulation upon carfilzomib-treatment 24 #1: 0
  modulation upon carfilzomib-treatment 24 #2: 0
  modulation upon carfilzomib-treatment 24 #3: 0
  modulation upon carfilzomib-treatment 48 #1: 0
  modulation upon carfilzomib-treatment 48 #2: 0
  modulation upon carfilzomib-treatment 48 #3: 0

## KLPLPLPPRL
  modulation upon carfilzomib-treatment 24 #1: 0
  modulation upon carfilzomib-treatment 24 #2: 0
  modulation upon carfilzomib-treatment 24 #3: 0
  modulation upon carfilzomib-treatment 48 #1: 0
  modulation upon carfilzomib-treatment 48 #2: 0
  modulation upon carfilzomib-treatment 48 #3: 0

## ILWETVPSM
  modulation upon carfilzomib-treatment 24 #1: 0
  modulation upon carfilzomib-treatment 24 #2: 0
  modulation upon carfilzomib-treatment 24 #3: 0
  modulation upon carfilzomib-treatment 48 #1: 0
  modulation upon carfilzomib-treatment 48 #2: 0
  modulation upon carfilzomib-treatment 48 #3: 0

## RVFPYSVFY
  modulation upon carfilzomib-treatment 24 #1: −1
  modulation upon carfilzomib-treatment 24 #2: 0
  modulation upon carfilzomib-treatment 24 #3: 0
  modulation upon carfilzomib-treatment 48 #1: −1
  modulation upon carfilzomib-treatment 48 #2: −1
  modulation upon carfilzomib-treatment 48 #3: −1

## SESLPVRTL
  modulation upon carfilzomib-treatment 24 #1: 0
  modulation upon carfilzomib-treatment 24 #2: 0
  modulation upon carfilzomib-treatment 24 #3: 0
  modulation upon carfilzomib-treatment 48 #1: 0
  modulation upon carfilzomib-treatment 48 #2: 0
  modulation upon carfilzomib-treatment 48 #3: 0

## GEVQDLLVRL
  modulation upon carfilzomib-treatment 24 #1: 0
  modulation upon carfilzomib-treatment 24 #2: 0
  modulation upon carfilzomib-treatment 24 #3: 0
  modulation upon carfilzomib-treatment 48 #1: 0
  modulation upon carfilzomib-treatment 48 #2: 0
  modulation upon carfilzomib-treatment 48 #3: 0

## KTEVHIRPK
  modulation upon carfilzomib-treatment 24 #1: 0
  modulation upon carfilzomib-treatment 24 #2: 0
  modulation upon carfilzomib-treatment 24 #3: 0
  modulation upon carfilzomib-treatment 48 #1: 0
  modulation upon carfilzomib-treatment 48 #2: 0
  modulation upon carfilzomib-treatment 48 #3: 0

## KPSTKALVL
  modulation upon carfilzomib-treatment 24 #1: 0
  modulation upon carfilzomib-treatment 24 #2: 0
  modulation upon carfilzomib-treatment 24 #3: 0
  modulation upon carfilzomib-treatment 48 #1: 0
  modulation upon carfilzomib-treatment 48 #2: 0
  modulation upon carfilzomib-treatment 48 #3: 0

## REEGTPLTL
  modulation upon carfilzomib-treatment 24 #1: 0
  modulation upon carfilzomib-treatment 24 #2: 0
  modulation upon carfilzomib-treatment 24 #3: 0
  modulation upon carfilzomib-treatment 48 #1: 0
  modulation upon carfilzomib-treatment 48 #2: 0
  modulation upon carfilzomib-treatment 48 #3: 0

## IIFDRPLLY
  modulation upon carfilzomib-treatment 24 #1: 0
  modulation upon carfilzomib-treatment 24 #2: 0
  modulation upon carfilzomib-treatment 24 #3: 0
  modulation upon carfilzomib-treatment 48 #1: 0
  modulation upon carfilzomib-treatment 48 #2: 0
  modulation upon carfilzomib-treatment 48 #3: −1

## KILKPVKKK
  modulation upon carfilzomib-treatment 24 #1: 0
  modulation upon carfilzomib-treatment 24 #2: 0
  modulation upon carfilzomib-treatment 24 #3: 0
  modulation upon carfilzomib-treatment 48 #1: 0
  modulation upon carfilzomib-treatment 48 #2: 0
  modulation upon carfilzomib-treatment 48 #3: 0

## RVAKTNSLR
  modulation upon carfilzomib-treatment 24 #1: 0
  modulation upon carfilzomib-treatment 24 #2: 0
  modulation upon carfilzomib-treatment 24 #3: 0
  modulation upon carfilzomib-treatment 48 #1: 0
  modulation upon carfilzomib-treatment 48 #2: 0
  modulation upon carfilzomib-treatment 48 #3: 0

## RPFHGWTSL
  modulation upon carfilzomib-treatment 24 #1: 0
  modulation upon carfilzomib-treatment 24 #2: 0
  modulation upon carfilzomib-treatment 24 #3: 0
  modulation upon carfilzomib-treatment 48 #1: 0
  modulation upon carfilzomib-treatment 48 #2: 0
  modulation upon carfilzomib-treatment 48 #3: 0
